In ChEMBL document CHEMBL2440076, “New triarylpyrazoles as broad-spectrum anticancer agents: design, synthesis, and biological evaluation” (Eur J Med Chem, 2013):

Key:
SN12C = experiment: Growth inhibition of human SN12C cells after 48 hrs by sulforhodamine B assay; format: functional
K562 [1] = experiment: Growth inhibition of human K562 cells after 48 hrs by sulforhodamine B assay; format: functional; details: K562, 48 h
MDA-MB-468 [2] = experiment: Growth inhibition of human MDA-MB-468 cells after 48 hrs by sulforhodamine B assay; format: functional, cell-based; details: MDA-MB-468, 48 h
DU-145 = experiment: Growth inhibition of human DU145 cells after 48 hrs by sulforhodamine B assay; format: functional; details: DU-145, 48 h
NCI-H322M = experiment: Growth inhibition of human NCI-H322M cells after 48 hrs by sulforhodamine B assay; format: functional
RPMI-8226 = experiment: Growth inhibition of human RPMI8226 cells after 48 hrs by sulforhodamine B assay; format: functional, cell-based; details: RPMI-8226, 48 h
HOP-92 [3] = experiment: Growth inhibition of human HOP92 cells after 48 hrs by sulforhodamine B assay; format: functional, cell-based; details: HOP-92, 48 h
T47D = experiment: Growth inhibition of human T47D cells after 48 hrs by sulforhodamine B assay; format: functional
TK-10 [4] = experiment: Growth inhibition of human TK10 cells after 48 hrs by sulforhodamine B assay; format: functional; details: TK-10, 48 h
HL-60(TB) = experiment: Growth inhibition of human HL-60(TB) cells after 48 hrs by sulforhodamine B assay; format: functional; details: HL-60, 48 h
Malme-3M = experiment: Growth inhibition of human MALME-3M cells assessed as cell growth at 10 uM after 48 hrs by sulforhodamine B assay; format: functional; details: read-out: Activity
MCF7 = experiment: Growth inhibition of human MCF7 cells after 48 hrs by sulforhodamine B assay; format: functional; details: MCF7, 48 h
HOP-92 [5] = experiment: Growth inhibition of human HOP92 cells assessed as cell growth at 10 uM after 48 hrs by sulforhodamine B assay; format: functional; details: HOP-92, 48 h, read-out: Activity
IGROV-1 = experiment: Growth inhibition of human IGROV1 cells assessed as cell growth at 10 uM after 48 hrs by sulforhodamine B assay; format: functional; details: IGROV-1, 48 h, read-out: Activity
[6] = Growth inhibition of human HCC2998 cells assessed as cell growth at 10 uM after 48 hrs by sulforhodamine B assay; format: functional; details: HCC 2998, 48 h, read-out: Activity
TK-10 [7] = experiment: Growth inhibition of human TK10 cells assessed as cell growth at 10 uM after 48 hrs by sulforhodamine B assay; format: functional; details: TK-10, 48 h, read-out: Activity
NCI-H460 = experiment: Growth inhibition of human NCI-H460 cells assessed as cell growth at 10 uM after 48 hrs by sulforhodamine B assay; format: functional; details: NCI-H460, 48 h, read-out: Activity
A549 [8] = experiment: Growth inhibition of human A549/ATCC cells after 48 hrs by sulforhodamine B assay; format: functional; details: A549, 48 h
SNB-19 = experiment: Growth inhibition of human SNB19 cells assessed as cell growth at 10 uM after 48 hrs by sulforhodamine B assay; format: functional; details: SNB-19, 48 h, read-out: Activity
MDA-MB-231 = experiment: Growth inhibition of human MDA-MB-231 cells assessed as cell growth at 10 uM after 48 hrs by sulforhodamine B assay; format: functional; details: MDA-MB-231, 48 h, read-out: Activity
K562 [9] = experiment: Growth inhibition of human K562 cells assessed as cell growth at 10 uM after 48 hrs by sulforhodamine B assay; format: functional; details: K562, 48 h, read-out: Activity
MDA-MB-468 [10] = experiment: Growth inhibition of human MDA-MB-468 cells assessed as cell growth at 10 uM after 48 hrs by sulforhodamine B assay; format: functional; details: MDA-MB-468, 48 h, read-out: Activity
OVCAR-3 = experiment: Growth inhibition of human OVCAR3 cells after 48 hrs by sulforhodamine B assay; format: functional, cell-based; details: OVCAR-3, 48 h
SK-MEL-2 [11] = experiment: Growth inhibition of human SK-MEL-2 cells after 48 hrs by sulforhodamine B assay; format: functional; details: SK-MEL-2, 48 h
A549 [12] = experiment: Growth inhibition of human A549/ATCC cells assessed as cell growth at 10 uM after 48 hrs by sulforhodamine B assay; format: functional; details: A549, 48 h, read-out: Activity
[13] = Growth inhibition of human Hs 578T cells after 48 hrs by sulforhodamine B assay; format: functional
HCT-15 = experiment: Growth inhibition of human HCT15 cells assessed as cell growth at 10 uM after 48 hrs by sulforhodamine B assay; format: functional; details: HCT-15, 48 h, read-out: Activity
CCRF-CEM = experiment: Growth inhibition of human CCRF-CEM cells assessed as cell growth at 10 uM after 48 hrs by sulforhodamine B assay; format: functional; details: read-out: Activity
SK-MEL-2 [14] = experiment: Growth inhibition of human SK-MEL-2 cells assessed as cell growth at 10 uM after 48 hrs by sulforhodamine B assay; format: functional; details: SK-MEL-2, 48 h, read-out: Activity
SNB-75 = experiment: Growth inhibition of human SNB75 cells after 48 hrs by sulforhodamine B assay; format: functional; details: SNB-75, 48 h
LOX IMVI = experiment: Growth inhibition of human LOXIMVI cells after 48 hrs by sulforhodamine B assay; format: functional
NCI-H226 = experiment: Growth inhibition of human NCI-H226 cells after 48 hrs by sulforhodamine B assay; format: functional; details: NCI-H226, 48 h
KM12 = experiment: Growth inhibition of human KM12 cells after 48 hrs by sulforhodamine B assay; format: functional, cell-based; details: KM12, 48 h
RXF 393 = experiment: Growth inhibition of human RXF393 cells assessed as cell growth at 10 uM after 48 hrs by sulforhodamine B assay; format: functional; details: RXF 393, 48 h, read-out: Activity
[15] = read-out: LC50 (the source's name)

O=C(Nc1cccc(-n2cc(-c3ccncc3)c(-c3ccc(Cl)c(O)c3)n2)c1)Nc1cc(C(F)(F)F)cc(C(F)(F)F)c1 gave a GI50 (SN12C) of 1030 nM, a TGI (SN12C) of 5450 nM and a CC50 (SN12C; [15]) of over 50000 nM. The GI50 (K562 [1]) was 433 nM, the TGI (K562 [1]) was 3930 nM and the CC50 (K562 [1]; [15]) was over 50000 nM. It also gave a GI50 (MDA-MB-468 [2]) of 265 nM, an IC50 (MDA-MB-468 [2]) of 270 nM and a TGI (MDA-MB-468 [2]) of 2660 nM. It also gave a CC50 (MDA-MB-468 [2]; [15]) of 37100 nM, a GI50 (DU-145) of 1250 nM and an LC50 (DU-145) of 17400 nM. The TGI (DU-145) was 5620 nM, the GI50 (NCI-H322M) was 1310 nM and the TGI (NCI-H322M) was 5390 nM. It also gave a CC50 (NCI-H322M; [15]) of 23600 nM, a GI50 (RPMI-8226) of 477 nM and an IC50 (RPMI-8226) of 480 nM. The TGI (RPMI-8226) was over 50000 nM, the CC50 (RPMI-8226; [15]) was over 50000 nM and the GI50 (HOP-92 [3]) was 344 nM. For the same molecule, the IC50 (HOP-92 [3]) was 340 nM, the LC50 (HOP-92 [3]) was 8660 nM and the TGI (HOP-92 [3]) was 1750 nM. It also gave a GI50 (T47D) of 1820 nM, a TGI (T47D) of 14000 nM and a CC50 (T47D; [15]) of over 50000 nM. The GI50 (TK-10 [4]) was 959 nM, the TGI (TK-10 [4]) was 3580 nM and the CC50 (TK-10 [4]; [15]) was 14200 nM. The GI50 (HL-60(TB)) was 1500 nM, the TGI (HL-60(TB)) was 13500 nM and the CC50 (HL-60(TB); [15]) was over 50000 nM. For the same molecule, the growth at 10 µM (Malme-3M) was -23%, the GI50 (MCF7) was 540 nM and the LC50 (MCF7) was 31500 nM. It also gave a TGI (MCF7) of 5790 nM, a growth at 10 µM (HOP-92 [5]) of -45.8% and a growth at 10 µM (IGROV-1) of 4.8%. It also gave a growth at 10 µM [6] of -56.9%, a growth at 10 µM (TK-10 [7]) of -24.6% and a growth at 10 µM (NCI-H460) of -55.7%. It also gave a GI50 (A549 [8]) of 298 nM, an LC50 (concentration killing 50% of starting cells) (A549 [8]) of 11400 nM and a TGI (A549 [8]) of 1690 nM. The growth at 10 µM (SNB-19) was 11.3%, the growth at 10 µM (MDA-MB-231) was -88.9% and the growth at 10 µM (K562 [9]) was -19.6%. The growth at 10 µM (MDA-MB-468 [10]) was -23.9%, the GI50 (OVCAR-3) was 395 nM and the IC50 (OVCAR-3) was 400 nM. For the same molecule, the TGI (OVCAR-3) was 1200 nM, the CC50 (OVCAR-3; [15]) was 3310 nM and the GI50 (SK-MEL-2 [11]) was 1250 nM. For the same molecule, the LC50 (50% lethal concentration) (SK-MEL-2 [11]) was 14100 nM, the TGI (SK-MEL-2 [11]) was 3030 nM and the growth at 10 µM (A549 [12]) was -32.5%. The GI50 [13] was 1140 nM, the TGI [13] was 4080 nM and the CC50 [13, 15] was over 50000 nM. It also gave a growth at 10 µM (HCT-15) of -7.23%, a growth at 10 µM (CCRF-CEM) of -16% and a growth at 10 µM (SK-MEL-2 [14]) of -73.7%. The GI50 (SNB-75) was 877 nM, the LC50 (lethal concentration, 50% net cell kill) (SNB-75) was 7030 nM and the TGI (SNB-75) was 2180 nM. It also gave a GI50 (LOX IMVI) of 712 nM, an LC50 (LOX IMVI) of 2750 nM and a TGI (LOX IMVI) of 1400 nM. It also gave a GI50 (NCI-H226) of 1240 nM, a TGI (NCI-H226) of 6120 nM and a CC50 (NCI-H226; [15]) of 37600 nM. For the same molecule, the GI50 (KM12) was 506 nM, the IC50 (KM12) was 510 nM and the TGI (KM12) was 1430 nM. For the same molecule, the CC50 (KM12; [15]) was 4060 nM and the growth at 10 µM (RXF 393) was -66.7%.
